In article PMC12186697, “HypoxyStat, a small-molecule form of hypoxia therapy that increases oxygen-hemoglobin affinity” (Cell, 2025):

Tested on: 25+ potential off-targets
Experiment: Reaction Bio InVEST off-target panel
Details: duplicate; significance = 50% or greater inhibition in both replicates
Protocol: This assay utilizes colorimetry to monitor the activity of acetylcholinesterase (AChE). Enzyme activity is measured by the conversion of acetylthiocholine to thiocholine, which is detected through an enhanced Ellman’s reaction. In each well, 20 μL of Assay Buffer (75.4 mM Na2HPO4, 24.6 mM NaH2PO4, pH 7.5) was added to wells designated as background/control (no enzyme). Subsequently, 20 μL of 0.2 U/mL AChE was added to the remaining wells. The reaction mixture was incubated at room temperature for 15 minutes on a shaker to allow for enzyme and drug interaction. To initiate the improved Ellman’s reaction, 30 μL of buffer containing 650 μM DTNB and 650 μM acetylthiocholine was added to each well. The color intensity, which is proportional to enzyme activity, was measured at 412 nm using an Envision 2105 plate reader.
The peroxidase activity is measured colorimetrically by monitoring the appearance of oxidized TMPD at 590 nm. […] Absorbance was then measured at 590 nm using an Envision 2105 plate reader (Revvity).
This assay uses fluorescence polarization to monitor binding to the hERG channel. […] Fluorescence polarization was measured at Ex/Em = 531 nm FP/595 nm P & S, and mP values were calculated.
The ADP-Glo™ assay is a luminescent method used to monitor ADP-producing biochemical reactions. […] Luminescence was then measured. […]

## O=Cc1ccccc1C(=O)N1CCCC[C@H]1COc1cccc(O)c1C=O [HypoxyStat]
  off-target inhibition or binding, InVEST panel: All tests were negative
